Bridge positions count the residues as written; N and C are the ends. Peptide text beside a SMILES is read from it.
molecular target: T1, IL17-RE-IL-17C (Homo sapiens, UniProt Q8NFR9+Q9P0M4); experiment: Inhibition of interleukin-17RE/biotinylated IL-17C protein-protein interaction (unknown origin) incubated for 1 hrs by competitive ELISA; format: protein-complex assay
T1 sequence (Q9P0M4 whole entry): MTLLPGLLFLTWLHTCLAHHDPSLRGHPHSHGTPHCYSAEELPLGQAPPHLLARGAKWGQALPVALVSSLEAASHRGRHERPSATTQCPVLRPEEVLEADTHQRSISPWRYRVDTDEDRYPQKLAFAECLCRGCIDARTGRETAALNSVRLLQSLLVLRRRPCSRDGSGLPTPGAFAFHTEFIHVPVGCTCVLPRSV
T1 sequence (Q8NFR9 whole entry): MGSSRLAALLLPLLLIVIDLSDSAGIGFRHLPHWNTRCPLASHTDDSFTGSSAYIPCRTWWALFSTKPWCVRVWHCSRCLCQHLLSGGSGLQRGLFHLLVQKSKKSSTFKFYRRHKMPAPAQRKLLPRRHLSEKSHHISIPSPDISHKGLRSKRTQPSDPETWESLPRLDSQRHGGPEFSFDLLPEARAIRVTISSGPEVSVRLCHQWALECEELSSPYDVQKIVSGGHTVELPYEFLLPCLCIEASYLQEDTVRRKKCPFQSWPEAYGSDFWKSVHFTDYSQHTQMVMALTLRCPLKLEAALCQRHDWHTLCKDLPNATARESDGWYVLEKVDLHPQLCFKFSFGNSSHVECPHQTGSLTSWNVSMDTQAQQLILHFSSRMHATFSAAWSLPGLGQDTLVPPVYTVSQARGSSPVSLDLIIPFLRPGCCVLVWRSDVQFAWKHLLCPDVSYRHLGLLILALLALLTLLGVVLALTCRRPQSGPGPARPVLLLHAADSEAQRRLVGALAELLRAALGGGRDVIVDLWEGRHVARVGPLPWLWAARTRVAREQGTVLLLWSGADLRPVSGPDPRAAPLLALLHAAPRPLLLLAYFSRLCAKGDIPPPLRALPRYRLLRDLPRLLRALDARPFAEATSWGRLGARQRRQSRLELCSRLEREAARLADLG

Structure (SMILES) | IC50
CC[C@H](C)[C@@H]1NC(=O)[C@H](CCCNC(=N)N)NC(=O)[C@H](Cc2ccc(O)cc2)NC(=O)[C@H](Cc2ccc(O)cc2)NC(=O)[C@H](CCC(=O)O)NC(=O)[C@H](Cc2c[nH]cn2)NC(=O)[C@H](Cc2ccc(O)cc2)NC(=O)CSC[C@@H](C(=O)NCC(N)=O)NC(=O)CNC(=O)[C@H](CC(C)C)NC(=O)[C@H](CCC(=O)O)NC(=O)CNC(=O)[C@H](Cc2ccc(O)cc2)NC(=O)[C@H](CC(C)C)NC1=O ({CH2CO}-YHEYYRILYGELGCG-NH2; thioether N-14) | 86 nM
CC(C)C[C@@H]1NC(=O)[C@H](CC(=O)O)NC(=O)CNC(=O)[C@H](Cc2ccc(O)cc2)NC(=O)[C@H](CC(C)C)NC(=O)[C@H](CO)NC(=O)[C@H](CCCNC(=N)N)NC(=O)[C@H](Cc2ccc(O)cc2)NC(=O)[C@H](CC(N)=O)NC(=O)[C@H](Cc2c[nH]cn2)NC(=O)[C@H](Cc2c[nH]cn2)NC(=O)[C@H](Cc2ccc(O)cc2)NC(=O)CSC[C@@H](C(=O)NCC(N)=O)NC(=O)CNC1=O ({CH2CO}-YHHNYRSLYGDLGCG-NH2; thioether N-14) | > 30000 nM
CC(C)C[C@@H]1NC(=O)[C@H](CC(=O)O)NC(=O)CNC(=O)[C@H](Cc2ccc(O)cc2)NC(=O)[C@H](CC(C)C)NC(=O)[C@H](CO)NC(=O)[C@H](CCCNC(=N)N)NC(=O)[C@H](Cc2c[nH]cn2)NC(=O)[C@H](Cc2ccc(O)cc2)NC(=O)[C@H](Cc2c[nH]cn2)NC(=O)[C@H](Cc2c[nH]cn2)NC(=O)[C@H](Cc2ccc(O)cc2)NC(=O)CSC[C@@H](C(=O)NCC(N)=O)NC(=O)CNC1=O ({CH2CO}-YHHYHRSLYGDLGCG-NH2; thioether N-14) | > 30000 nM
CC[C@H](C)[C@@H]1NC(=O)[C@H](CCCCN)NC(=O)[C@H](Cc2ccc(O)cc2)NC(=O)[C@H](Cc2ccc(O)cc2)NC(=O)[C@H](Cc2c[nH]cn2)NC(=O)[C@H](Cc2c[nH]cn2)NC(=O)[C@H](Cc2ccc(O)cc2)NC(=O)CSC[C@@H](C(=O)NCC(N)=O)NC(=O)CNC(=O)[C@H](CC(C)C)NC(=O)[C@H](CCC(=O)O)NC(=O)CNC(=O)[C@H](Cc2ccc(O)cc2)NC(=O)[C@H](CC(C)C)NC1=O ({CH2CO}-YHHYYKILYGELGCG-NH2; thioether N-14) | 116 nM
CC[C@H](C)[C@@H]1NC(=O)[C@H](CC(N)=O)NC(=O)[C@H](Cc2ccc(O)cc2)NC(=O)[C@H](Cc2ccc(O)cc2)NC(=O)[C@H](Cc2c[nH]cn2)NC(=O)[C@H](Cc2c[nH]cn2)NC(=O)[C@H](Cc2ccc(O)cc2)NC(=O)CSC[C@@H](C(=O)NCC(N)=O)NC(=O)CNC(=O)[C@H](CC(C)C)NC(=O)[C@H](CCC(=O)O)NC(=O)CNC(=O)[C@H](Cc2ccc(O)cc2)NC(=O)[C@H](CC(C)C)NC1=O ({CH2CO}-YHHYYNILYGELGCG-NH2; thioether N-14) | 2360 nM
CC(C)C[C@@H]1NC(=O)[C@H](C)NC(=O)[C@H](CCCNC(=N)N)NC(=O)[C@H](Cc2ccc(O)cc2)NC(=O)[C@H](Cc2ccc(O)cc2)NC(=O)[C@H](Cc2c[nH]cn2)NC(=O)[C@H](Cc2c[nH]cn2)NC(=O)[C@H](Cc2ccc(O)cc2)NC(=O)CSC[C@@H](C(=O)NCC(N)=O)NC(=O)CNC(=O)[C@H](CC(C)C)NC(=O)[C@H](CCC(=O)O)NC(=O)CNC(=O)[C@H](Cc2ccc(O)cc2)NC1=O ({CH2CO}-YHHYYRALYGELGCG-NH2; thioether N-14) | 254 nM
CC[C@H](C)[C@@H]1NC(=O)[C@H](CCCNC(=N)N)NC(=O)[C@H](Cc2ccc(O)cc2)NC(=O)[C@H](Cc2ccc(O)cc2)NC(=O)[C@H](Cc2c[nH]cn2)NC(=O)[C@H](Cc2c[nH]cn2)NC(=O)[C@H](Cc2ccc(O)cc2)NC(=O)CSC[C@@H](C(=O)NCC(N)=O)NC(=O)CNC(=O)[C@H](CC(C)C)NC(=O)[C@H](CCC(=O)O)NC(=O)CNC(=O)[C@H](Cc2ccc(O)cc2)NC(=O)[C@H](Cc2ccccc2)NC1=O ({CH2CO}-YHHYYRIFYGELGCG-NH2; thioether N-14) | 23300 nM
CC[C@H](C)[C@@H]1NC(=O)[C@H](CCCNC(=N)N)NC(=O)[C@H](Cc2ccc(O)cc2)NC(=O)[C@H](Cc2ccc(O)cc2)NC(=O)[C@H](Cc2c[nH]cn2)NC(=O)[C@H](Cc2c[nH]cn2)NC(=O)[C@H](Cc2ccc(O)cc2)NC(=O)CSC[C@@H](C(=O)NCC(N)=O)NC(=O)CNC(=O)[C@H](CC(C)C)NC(=O)[C@H](CC(=O)O)NC(=O)CNC(=O)[C@H](Cc2ccc(O)cc2)NC(=O)[C@H](CC(C)C)NC1=O ({CH2CO}-YHHYYRILYGDLGCG-NH2; thioether N-14) | 83 nM
CC[C@H](C)[C@@H]1NC(=O)[C@H](CCCNC(=N)N)NC(=O)[C@H](Cc2ccc(O)cc2)NC(=O)[C@H](Cc2ccc(O)cc2)NC(=O)[C@H](Cc2c[nH]cn2)NC(=O)[C@H](Cc2c[nH]cn2)NC(=O)[C@H](Cc2ccc(O)cc2)NC(=O)CSC[C@@H](C(=O)NCC(N)=O)NC(=O)CNC(=O)[C@H](CC(C)C)NC(=O)[C@H](CCCCN)NC(=O)CNC(=O)[C@H](Cc2ccc(O)cc2)NC(=O)[C@H](CC(C)C)NC1=O ({CH2CO}-YHHYYRILYGKLGCG-NH2; thioether N-14) | 73 nM
CC[C@H](C)[C@@H]1NC(=O)[C@H](CCCNC(=N)N)NC(=O)[C@H](Cc2ccc(O)cc2)NC(=O)[C@H](Cc2ccc(O)cc2)NC(=O)[C@H](CCCCN)NC(=O)[C@H](Cc2c[nH]cn2)NC(=O)[C@H](Cc2ccc(O)cc2)NC(=O)CSC[C@@H](C(=O)NCC(N)=O)NC(=O)CNC(=O)[C@H](CC(C)C)NC(=O)[C@H](CCC(=O)O)NC(=O)CNC(=O)[C@H](Cc2ccc(O)cc2)NC(=O)[C@H](CC(C)C)NC1=O ({CH2CO}-YHKYYRILYGELGCG-NH2; thioether N-14) | 89 nM
CC[C@H](C)[C@@H]1NC(=O)[C@H](CCCNC(=N)N)NC(=O)[C@H](Cc2ccc(O)cc2)NC(=O)[C@H](Cc2ccc(O)cc2)NC(=O)[C@H](CC(C)C)NC(=O)[C@H](Cc2c[nH]cn2)NC(=O)[C@H](Cc2ccc(O)cc2)NC(=O)CSC[C@@H](C(=O)NCC(N)=O)NC(=O)CNC(=O)[C@H](CC(C)C)NC(=O)[C@H](CCC(=O)O)NC(=O)CNC(=O)[C@H](Cc2ccc(O)cc2)NC(=O)[C@H](CC(C)C)NC1=O ({CH2CO}-YHLYYRILYGELGCG-NH2; thioether N-14) | 68 nM

These reach a lower IC50. Values come first.

IC50 | Structure (SMILES)
5.6 nM | CC[C@@H](C)[C@@H]1NC(=O)[C@H](CCCNC(=N)N)NC(=O)[C@H](Cc2ccc(O)cc2)NC(=O)[C@H](Cc2ccc(O)cc2)NC(=O)[C@H](CCC(N)=O)NC(=O)[C@H](Cc2c[nH]cn2)NC(=O)[C@H](Cc2ccc(O)cc2)NC(=O)CSC[C@@H](C(=O)NCC(N)=O)NC(=O)CNC(=O)[C@H](CC(C)C)NC(=O)[C@H](CC(N)=O)NC(=O)CNC(=O)[C@H](Cc2ccc(O)cc2)NC(=O)[C@H](CC(C)C)NC1=O
47 nM | CC[C@H](C)[C@@H]1NC(=O)[C@H](CCCNC(=N)N)NC(=O)[C@H](Cc2ccc(O)cc2)NC(=O)[C@H](Cc2ccc(O)cc2)NC(=O)[C@H](Cc2c[nH]cn2)NC(=O)[C@H](Cc2c[nH]cn2)NC(=O)[C@H](Cc2ccc(O)cc2)NC(=O)CSC[C@@H](C(=O)NCC(N)=O)NC(=O)CNC(=O)[C@H](CC(C)C)NC(=O)[C@H](CC(N)=O)NC(=O)CNC(=O)[C@H](Cc2ccc(O)cc2)NC(=O)[C@H](CC(C)C)NC1=O ({CH2CO}-YHHYYRILYGNLGCG-NH2; thioether N-14)
1.4 nM | CC[C@H](C)[C@@H]1NC(=O)[C@H](Cc2c[nH]cn2)NC(=O)[C@H](Cc2ccc(O)cc2)NC(=O)CSC[C@@H](C(=O)NCC(N)=O)NC(=O)CNC(=O)[C@H](CC(C)C)NC(=O)[C@H](CC(N)=O)NC(=O)CNC(=O)[C@H](Cc2ccc(O)cc2)NC(=O)[C@H](CC(C)C)NC(=O)[C@H](CO)NC(=O)[C@H](C)NC(=O)[C@H](Cc2ccc(O)cc2)NC(=O)[C@H](Cc2ccc(O)cc2)NC1=O ({CH2CO}-YHIYYASLYGNLGCG-NH2; thioether N-14)
1.7 nM | CC[C@H](C)[C@@H]1NC(=O)[C@H](Cc2c[nH]cn2)NC(=O)[C@H](Cc2ccc(O)cc2)NC(=O)CSC[C@@H](C(=O)NCC(N)=O)NC(=O)CNC(=O)[C@H](CC(C)C)NC(=O)[C@H](CC(=O)O)NC(=O)CNC(=O)[C@H](Cc2ccc(O)cc2)NC(=O)[C@H](CC(C)C)NC(=O)[C@H](CO)NC(=O)[C@H](CCCNC(=N)N)NC(=O)[C@H](Cc2ccc(O)cc2)NC(=O)[C@H](Cc2ccc(O)cc2)NC1=O ({CH2CO}-YHIYYRSLYGDLGCG-NH2; thioether N-14)
15 nM | CC[C@H](C)[C@@H]1NC(=O)[C@H](CCCNC(=N)N)NC(=O)[C@H](Cc2ccc(O)cc2)NC(=O)[C@H](Cc2ccc(O)cc2)NC(=O)[C@H](CCC(N)=O)NC(=O)[C@H](Cc2c[nH]cn2)NC(=O)[C@H](Cc2ccc(O)cc2)NC(=O)CSC[C@@H](C(=O)NCC(N)=O)NC(=O)CNC(=O)[C@H](CC(C)C)NC(=O)[C@H](CCC(=O)O)NC(=O)CNC(=O)[C@H](Cc2ccc(O)cc2)NC(=O)[C@H](CC(C)C)NC1=O ({CH2CO}-YHQYYRILYGELGCG-NH2; thioether N-14)

Reference: ChEMBL document CHEMBL5614375, “PepExplainer: An explainable deep learning model for selection-based macrocyclic peptide bioactivity prediction and optimization” (Eur J Med Chem, 2024)
